Assay results from patent US10077288B2, “Hydroxystatin derivatives for the treatment of arthrosis” (Merck Patent GmbH, priority 2012, dated 2018).

These compounds were tested against T1, cathepsin D isolated from the human liver (Homo sapiens, UniProt P07339) (assay: In-vitro fluorescence assay for identification of cathepsin D inhibitors). Conditions: human liver cathepsin D 1.4 nM, pH 5.5; read-out: CatD assay IC50-(M).
T1 construct: cathepsin D isolated from the human liver (Sigma-Aldrich); purchased Sigma-Aldrich; host or cells: human liver (tissue-derived, not recombinant)
Format: biochemical
Description: EXAMPLE 4: IN-VITRO FLUORESCENCE ASSAY FOR IDENTIFICATION OF CATHEPSIN D INHIBITORS
In order to identify modulators of cathepsin D activity, a continuous enzymatic test was carried out with a synthetic peptide which carries a fluorescent group (MCA=(7-methoxycoumarin-4-yl)acetyl) which is quenched by energy transfer from a Dpn (2,4 dinitrophenyl) group on the same molecule, in Greiner 384-well nb microtitre plates. Cleavage of the peptidic substrate by cathepsin D causes an increase in the fluorescence intensity. In order to determine the efficacy of substances, the time-dependent increase in the fluorescence intensity in the presence of the substance was compared with the time-dependent increase in fluorescence in the absence of substances. The reference substance used was pepstatin A (Sigma-Aldrich). The substrate used was MCA-GKPILFFRLK(Dnp)d-R—NH2 (Enzo Life Sciences, Lörrach). The enzyme employed was cathepsin D isolated from the human liver (Sigma-Aldrich) in a final concentration of 1.4 nM. The test was carried out in 100 mM sodium acetate buffer, 1.25% (v/v) of DMSO, 0.25% (w/v) of Chaps, pH 5.5. 2 μl of each substance solution with serially diluted substance concentration were added to in each case 4 μl of cathepsin D solution and incubated at room temperature for 10 min. The reaction was started by addition of 2 μl of substrate solution (final concentration 5 μM). After carrying out a starting-point fluorescence measurement (excitation wavelength 340 nm/emission wavelength 450 nm) using an Envision multilabel reader (Perkin Elmer), the reaction was incubated at room temperature for 60 min. The amount of peptide fragment cleaved off during the reaction time was subsequently measured by determination of the increase in the fluorescence intensity at 450 nm (excitation wavelength 340 nm).

T1 sequence (P07339 65-161 limits assumed): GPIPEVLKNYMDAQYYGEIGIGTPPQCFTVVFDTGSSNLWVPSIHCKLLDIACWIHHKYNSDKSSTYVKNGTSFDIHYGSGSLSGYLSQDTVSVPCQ
T1 sequence (P07339 169-412 limits assumed): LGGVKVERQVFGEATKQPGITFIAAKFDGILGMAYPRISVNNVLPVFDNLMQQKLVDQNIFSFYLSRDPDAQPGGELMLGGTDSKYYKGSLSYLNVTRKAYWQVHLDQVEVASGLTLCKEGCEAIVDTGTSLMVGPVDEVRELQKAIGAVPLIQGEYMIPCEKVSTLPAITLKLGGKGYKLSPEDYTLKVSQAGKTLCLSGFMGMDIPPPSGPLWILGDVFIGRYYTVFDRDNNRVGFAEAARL

Row | IC50 [M] | Compound
1 | 7.1e-08 | CC[C@H](C)[C@H](NC(=O)C[C@H](O)[C@H](Cc1ccccc1)NC(=O)[C@@H](NC(=O)CCCc1ccccc1)C(C)C)C(=O)N[C@H](C(=O)OCc1ccccc1)C(C)C [Compound 2, benzly (S)-2-((2S,3S)-2-{(3S,4S)-3-hydroxy-4-[(S)-3-methyl-2-(4-phenylbutyrylamino)butyrylamino]-5-phenylpentanoylamino}-3-methylpentanoylamino)-3-methylbutyrate]
2 | 2.3e-07 | CC[C@H](C)[C@H](NC(=O)C[C@H](O)[C@H](Cc1ccccc1)NC(=O)[C@@H](NC(=O)C(C)(C)Oc1ccc2ccccc2c1)C(C)C)C(=O)N[C@H](C(=O)O)C(C)C [Compound 6, (S)-2-[(2S,3S)-2-((3S,4S)-3-hydroxy-4-{(S)-3-methyl-2-[2-methyl-2-(naphthalen-2-yloxy)propionylamino]butyrylamino}-5-phenylpentanoylamino)-3-methylpentanoylamino]-3-methylbutyric acid]
3 | 3.5e-07 | CC[C@H](C)[C@H](NC(=O)C[C@H](O)[C@H](Cc1ccccc1)NC(=O)[C@@H](NC(=O)COc1ccc2ccccc2c1)C(C)C)C(=O)N[C@H](C(=O)OCc1ccccc1)C(C)C [Compound 7]
4 | 2.9e-08 | CC[C@H](C)[C@H](NC(=O)C[C@H](O)[C@H](Cc1ccccc1)NC(=O)[C@@H](NC(=O)Cc1ccc(OC)c(OC)c1)C(C)C)C(=O)N[C@H](C(=O)OCc1ccccc1)C(C)C [Compound 10, benzly (S)-2-[(2S,3S)-2-((3S,4S)-4-{(S)-2-[2-(3,4-dimethoxyphenyl)-acetylamino]-3-methylbutyrylamino}-3-hydroxy-5-phenylpentanoylamino)-3-methylpentanoylamino]-3-methylbutyrate]
5 | 9e-08 | CC[C@H](C)[C@H](NC(=O)C[C@H](O)[C@H](Cc1ccccc1)NC(=O)[C@@H](NC(=O)Cc1ccc(OC)cc1)C(C)C)C(=O)N[C@H](C(=O)OCc1ccccc1)C(C)C [Compound 11, benzly (S)-2-[(2S,3S)-2-((3S,4S)-3-hydroxy-4-{(S)-2-[2-(4-methoxy-phenyl)acetylamino]-3-methylbutyrylamino}-5-phenylpentanoylamino)-3-methylpentanoylamino]-3-methylbutyrate]
6 | 2.5e-08 | CCOc1cccc(CC(=O)N[C@H](C(=O)N[C@@H](Cc2ccccc2)[C@@H](O)CC(=O)N[C@H](C(=O)N[C@H](C(=O)OCc2ccccc2)C(C)C)[C@@H](C)CC)C(C)C)c1 [Compound 12, benzly (S)-2-[(2S,3S)-2-((3S,4S)-4-{(S)-2-[2-(3-ethoxyphenyl)-acetylamino]-3-methylbutyrylamino}-3-hydroxy-5-phenylpentanoylamino)-3-methylpentanoylamino]-3-methylbutyrate]
7 | 2.5e-08 | CC[C@H](C)[C@H](NC(=O)C[C@H](O)[C@H](Cc1ccccc1)NC(=O)[C@@H](NC(=O)Cc1cccc(OC)c1)C(C)C)C(=O)N[C@H](C(=O)OCc1ccccc1)C(C)C [Compound 13, benzly (S)-2-[(2S,3S)-2-((3S,4S)-3-hydroxy-4-{(S)-2-[2-(3-methoxy-phenyl)acetylamino]-3-methylbutyrylamino}-5-phenylpentanoylamino)-3-methylpentanoylamino]-3-methylbutyrate]
8 | 1.5e-07 | CC[C@H](C)[C@H](NC(=O)C[C@H](O)[C@H](Cc1ccccc1)NC(=O)[C@@H](NC(=O)Cc1ccc(OC)c(OC)c1)C(C)C)C(=O)N[C@H](C(=O)O)C(C)C [Compound 14, (S)-2-[(2S,3S)-2-((3S,4S)-4-{(S)-2-[2-(3,4-dimethoxyphenyl)acetylamino]-3-methylbutyrylamino}-3-hydroxy-5-phenylpentanoylamino)-3-methylpentanoylamino]-3-methylbutyric acid]
9 | 1.5e-07 | CC[C@H](C)[C@H](NC(=O)C[C@H](O)[C@H](Cc1ccccc1)NC(=O)[C@@H](NC(=O)Cc1ccc2ccccc2c1)C(C)C)C(=O)N[C@H](C(=O)OCc1ccccc1)C(C)C [Compound 16, benzly (S)-2-((2S,3S)-2-{(3S,4S)-3-hydroxy-4-[(S)-3-methyl-2-(2-naphthalen-2-ylacetylamino)butyrylamino]-5-phenylpentanoylamino}-3-methylpentanoylamino)-3-methylbutyrate]
10 | 1.55e-08 | CCOc1cccc(CC(=O)N[C@H](C(=O)N[C@@H](Cc2ccccc2)[C@@H](O)CC(=O)N[C@H](C(=O)N[C@H](C(=O)O)C(C)C)[C@@H](C)CC)C(C)C)c1 [Compound 17, (S)-2-[(2S,3S)-2-((3S,4S)-4-{(S)-2-[2-(3-ethoxyphenyl)acetylamino]-3-methylbutyrylamino}-3-hydroxy-5-phenylpentanoylamino)-3-methylpentanoylamino]-3-methylbutyric acid]
11 | 3.4e-08 | CC[C@H](C)[C@H](NC(=O)C[C@H](O)[C@H](Cc1ccccc1)NC(=O)[C@@H](NC(=O)Cc1cc(OC(F)(F)F)ccc1OC)C(C)C)C(=O)N[C@H](C(=O)OCc1ccccc1)C(C)C [Compound 18, benzly (S)-2-[(2S,3S)-2-((3S,4S)-3-hydroxy-4-{(S)-2-[2-(2-methoxy-5-trifluoromethoxyphenyl)acetylamino]-3-methylbutyrylamino}-5-phenylpentanoylamino)-3-methylpentanoylamino]-3-methylbutyrate]
12 | 4e-08 | CC[C@H](C)[C@H](NC(=O)C[C@H](O)[C@H](Cc1ccccc1)NC(=O)[C@@H](NC(=O)Cc1cccc(Oc2ccccc2)c1)C(C)C)C(=O)N[C@H](C(=O)OCc1ccccc1)C(C)C [Compound 19, benzly (S)-2-[(2S,3S)-2-((3S,4S)-3-hydroxy-4-{(S)-3-methyl-2-[2-(3-phenoxyphenyl)acetylamino]butyrylamino}-5-phenylpentanoylamino)-3-methylpentanoylamino]-3-methylbutyrate]
13 | 1.2e-06 | CC[C@H](C)[C@H](NC(=O)C[C@H](O)[C@H](Cc1ccccc1)NC(=O)[C@@H](NC(=O)Cc1cccc2ccccc12)C(C)C)C(=O)N[C@H](C(=O)OCc1ccccc1)C(C)C [Compound 21, benzly (S)-2-((2S,3S)-2-{(3S,4S)-3-hydroxy-4-[(S)-3-methyl-2-(2-naphthalen-1-ylacetylamino)butyrylamino]-5-phenylpentanoylamino}-3-methylpentanoylamino)-3-methylbutyrate]
14 | 2.1e-07 | CC[C@H](C)[C@H](NC(=O)C[C@H](O)[C@H](Cc1ccccc1)NC(=O)[C@@H](NC(=O)Cc1ccccc1OC)C(C)C)C(=O)N[C@H](C(=O)OCc1ccccc1)C(C)C [Compound 22, benzly (S)-2-[(2S,3S)-2-((3S,4S)-3-hydroxy-4-{(S)-2-[2-(2-methoxy-phenyl)acetylamino]-3-methylbutyrylamino}-5-phenylpentanoylamino)-3-methylpentanoylamino]-3-methylbutyrate]
15 | 1.1e-08 | CC[C@H](C)[C@H](NC(=O)C[C@H](O)[C@H](Cc1ccccc1)NC(=O)[C@@H](NC(=O)Cc1cc(OC(F)(F)F)ccc1OC)C(C)C)C(=O)N[C@H](C(=O)O)C(C)C [Compound 24, (S)-2-[(2S,3S)-2-((3S,4S)-3-hydroxy-4-{(S)-2-[2-(2-methoxy-5-trifluoromethoxyphenyl)acetylamino]-3-methylbutyrylamino}-5-phenylpentanoylamino)-3-methylpentanoylamino]-3-methylbutyric acid]
16 | 8.1e-09 | CC[C@H](C)[C@H](NC(=O)C[C@H](O)[C@H](Cc1ccccc1)NC(=O)[C@@H](NC(=O)Cc1ccc2ccccc2c1)C(C)C)C(=O)N[C@H](C(=O)O)C(C)C [Compound 25, (S)-2-((2S,3S)-2-{(3S,4S)-3-hydroxy-4-[(S)-3-methyl-2-(2-naphthalen-2-ylacetylamino)butyrylamino]-5-phenylpentanoylamino}-3-methylpentanoylamino)-3-methylbutyric acid]
17 | 1.2e-08 | CC[C@H](C)[C@H](NC(=O)C[C@H](O)[C@H](Cc1ccccc1)NC(=O)[C@@H](NC(=O)Cc1cccc(Oc2ccccc2)c1)C(C)C)C(=O)N[C@H](C(=O)O)C(C)C [Compound 27, (S)-2-[(2S,3S)-2-((3S,4S)-3-hydroxy-4-{(S)-3-methyl-2-[2-(3-phenoxyphenyl)acetylamino]butyrylamino}-5-phenylpentanoylamino)-3-methylpentanoylamino]-3-methylbutyric acid]

Row | Compound | IC50 [M]
18 | CC[C@H](C)[C@H](NC(=O)C[C@H](O)[C@H](Cc1ccccc1)NC(=O)[C@@H](NC(=O)c1cccc(OC(C)(C)C)c1)C(C)C)C(=O)N[C@H](C(=O)O)C(C)C [Compound 26, (S)-2-((2S,3S)-2-{(3S,4S)-4-[(S)-2-(3-tert-butoxybenzoylamino)-3-methylbutyrylamino]-3-hydroxy-5-phenylpentanoylamino}-3-methylpentanoylamino)-3-methylbutyric acid] | 1.2e-07
